Test results as given in patent US20070129415A1, “Method of Treating Isolated Systolic Hypertension” (priority 1997, published 2007).

System: prejunctional AII receptors and sympathetic outflow
Assay: Spinal cord-stimulated pithed rats: pressor response to stimulation of sympathetic vasomotor outflow
Assay type: in vivo, Sprague-Dawley rats
Details: pithed rat; for inhibition of the pressor responses mediated by sympathetic nervous system activation (spinal cord stimulation): 0.3 mg/kg, i.v. 10 min before second frequency-response curve, 50 V, 1 msec, 0.3-5.0 Hz
Experimental: Normotensive male Sprague-Dawley rats (300-350 gm) were anesthetized with Brevital (10 mg/kg, i.v.), a tracheostomy was performed and the rats were then pithed by inserting a steel rod (1.5 mm in diameter) through the orbit and foramen magnum into the spinal cord. Immediately after pithing, rats were ventilated artificially with room air using a rodent respirator at a frequency of 60 cycles/min with a volume of 2 ml/100 gm body weight. The pithing rod was insulated except for a 6-cm section distal from the tip. Body temperature was maintained at 37-38° C. by a thermostatic heating pad. Animals were treated with tubocurararine (1 mg/kg, i.v) and atropine (1 mg/kg, i.v.), to prevent muscle movement during spinal cord stimulation and parasympathetic effects, respectively. Systemic arterial blood pressure was measured from the right carotid artery by a Statham P23 pressure transducer and recorded on a Grass polygraph. The left jugular vein was cannulated for i.v. administration of drugs.
Stimulation of sympathetic vasomotor outflow was accomplished by a consecutive train of stimulation (50 V, 1 msec, 0.3-5.0 Hz) which was delivered for 15 sec at each frequency. […] For all the compounds evaluated, this dose provided effective blockade of the pressor response to exogenous AII (100 ng/kg, i.v.). Each rat served as its own control.
AII data are shown as the means±S.E.M. of the number (n) of observations. Statistical significance of the differences between drug-treated animals and vehicle-control animals was tested by a one-way analysis of variance with a P valued of 0.05 accepted as significant.

Row | Molecule | inhibition of the pressor responses mediated by sympathetic nervous system activation (spinal cord stimulation) | also measured
1 | CCCCc1ncc(/C=C(\Cc2cccs2)C(=O)O)n1Cc1ccc(C(=O)O)cc1 [Eprosartan, (E)-α-[2-n-butyl-1-[(4-carboxyphenyl)methyl]-1H-imidazol-5-yl]methylene-2-thiophenepropionic acid monomethanesulfonate] | significant inhibition | 
2 | CCCCC1=NC2(CCCC2)C(=O)N1Cc1ccc(-c2ccccc2-c2nnn[nH]2)cc1 [irbesartan] | neither losartan, valsartan, or irbesartan produced significant inhibition | 
3 | CCCCc1nc(Cl)c(CO)n1Cc1ccc(-c2ccccc2-c2nn[nH]n2)cc1 [losartan] | neither losartan, valsartan, or irbesartan produced significant inhibition | 
4 | CCCCC(=O)N(Cc1ccc(-c2ccccc2-c2nnn[nH]2)cc1)[C@H](C(=O)O)C(C)C [valsartan] | neither losartan, valsartan, or irbesartan produced significant inhibition | 
5 | Sar^1-Ile^8[AII] |  | inhibition of the increase in pressor response to spinal cord stimulation (continuous infusion 10 ug/kg/min): significantly inhibited
6 | angiotensin II (DRVYIHPF; Angiotensin-2; UniProt P01019 25-32, looked up) [AII, angiotensin II (AII), infused at a sub-pressor dose] |  | shift of the frequency-response curve (pressor response to spinal cord stimulation) (continuous infusion of a sub-pressor dose, 40 ng/kg/min): significant leftward shifts
